In patent US20090142735A1, “Bacterial intraoral disease treatment composition, washing treatment solution, hemostatic treatment solution, and bacterial intraoral disease treatment method” (priority 2005, published 2009):

Assay: Test Example 1: penetrability of the base (migration of food red from the drug application seat)
Format: physicochemical
Conditions: 100% humidity, root embedded in gypsum block
Text: FIG. 7 depicts a cross-sectional view of a sample 50 according to the present test example. First, the mandibular first premolar affected with apical periodontitis was drilled with a #70 […] to enlarge the root canal and further the root canal 51 was filled using a gutta-percha point and a sealer, and by pressing them sideways. […] At the bottom of this drug application seat 52, two small pieces 53 (about 1.0 mm in diameter) of each base shown in Table 1 added with food red were loaded. Furthermore, cotton ball (not shown) was placed so as to cover these small pieces 53, and “Caviton (registered trade mark)” (G C Co., Ltd.) was layered over this cotton ball to form the covering layer 54, thereby preparing the sample 50. After the root portion of each sample 50 was embedded in an ordinary gypsum block 55, it was stored under 100% humidity. Migration distances of food red from the drug application seat for storing times of 24 hours and 48 hours were measured to assess the penetrability of the base contained in each sample. In this case, the migration distance was determined as the longest distance in the direction of depth (in the direction of the arrow D in FIG. 7) of the area reached by coloring due to food red when the sample 50 was observed from outside.

Compound	Migration distance of food red from drug application seat (depth direction) (storing time 24 hours)	Migration distance of food red from drug application seat (depth direction) (storing time 48 hours)
OCC(O)CO [Sample 6, Glycerin]	5.0 mm	7.0 mm
CC(O)CO (stereo not drawn) [Sample 2, Propylene glycol]	2.0 mm	3.5 mm
O [Sample 1, Water]	2.0 mm	4.0 mm
